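48-hour exposure; five concentrations; linearly interpolated endpoints. Here, GI50 denotes the concentration required for 50% inhibition of growth. TGI: concentration producing complete growth inhibition.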
Key:
Experiment in all cases: growth of human tumour cells (NCI), 48 h
UO-31 renal = system: UO-31 renal
UACC-62 melanoma = system: UACC-62 melanoma
A549 NSCLC = system: A549 NSCLC
SW-620 colon = system: SW-620 colon
MALME-3M melanoma = system: MALME-3M melanoma
SK-OV-3 ovarian = system: SK-OV-3 ovarian
SK-MEL-5 melanoma = system: SK-MEL-5 melanoma
MCF7 breast = system: MCF7 breast
M14 melanoma = system: M14 melanoma
ACHN renal = system: ACHN renal

Compound	GI50 (UO-31 renal)	TGI (UO-31 renal)	GI50 (UACC-62 melanoma)	TGI (UACC-62 melanoma)	GI50 (A549 NSCLC)	TGI (A549 NSCLC)	GI50 (SW-620 colon)	TGI (SW-620 colon)	GI50 (MALME-3M melanoma)	TGI (MALME-3M melanoma)	GI50 (SK-OV-3 ovarian)	TGI (SK-OV-3 ovarian)	GI50 (SK-MEL-5 melanoma)	TGI (SK-MEL-5 melanoma)	GI50 (MCF7 breast)	TGI (MCF7 breast)	GI50 (M14 melanoma)	TGI (M14 melanoma)	GI50 (ACHN renal)	TGI (ACHN renal)
Cn1ccnc1C(=O)/C=C/c1ccc(CC(=O)Nc2ccc(C(F)(F)F)cc2)cc1	2.51 µM	4.76 µM	3.16 µM	7.65 µM	3.82 µM	10.3 µM	4.17 µM	> 16.7 µM	3.95 µM	10.7 µM	6.6 µM	> 16.7 µM	3.83 µM	11.2 µM	1.02 µM	14.5 µM	3.72 µM	8.3 µM	2.95 µM	5.96 µM
N=C(N)c1ccc(COc2ccccc2OCc2ccc(C(=N)N)cc2)cc1	> 100 µM	> 100 µM	34.2 µM	> 100 µM	57.5 µM	> 100 µM	43.5 µM	> 100 µM	19.2 µM	52.2 µM	> 100 µM	> 100 µM	17.1 µM	44.5 µM	46.5 µM	> 100 µM	51.2 µM	> 100 µM	> 100 µM	> 100 µM
CC(C)(C#N)c1cc(C(=O)Nc2cc(Nc3ncccc3-c3ncnc4nc[nH]c34)ccc2F)cc(C(F)(F)F)c1	0.189 µM	–	0.0871 µM	0.788 µM	–	> 10 µM	0.58 µM	> 10 µM	0.0648 µM	0.234 µM	> 2.38 µM	> 10 µM	0.589 µM	> 1.98 µM	–	> 4.6 µM	0.101 µM	0.862 µM	1.2 µM	> 3.41 µM
FC(F)(F)c1ccc(-c2cnc(Cl)nc2NCc2cc(C(F)(F)F)cc(C(F)(F)F)c2)cc1	2.51 µM	> 100 µM	3.34 µM	> 100 µM	2.81 µM	> 100 µM	3.14 µM	> 100 µM	2.84 µM	7.56 µM	3.4 µM	> 100 µM	5.19 µM	> 100 µM	2.65 µM	> 100 µM	4.44 µM	> 100 µM	3.28 µM	> 100 µM
Nc1n[nH]c2ccc([C@@H]3Nc4ccc5[nH]ncc5c4[C@H]4C5C=CC(C5)[C@@H]34)cc12 (stereo partly specified)	0.769 µM	31.7 µM	0.213 µM	18.5 µM	0.444 µM	> 85.2 µM	0.367 µM	40.4 µM	0.655 µM	35.3 µM	1.03 µM	42.8 µM	0.338 µM	1.58 µM	0.14 µM	19 µM	0.231 µM	1.13 µM	0.562 µM	47.8 µM
CC(C)c1ccc(Nc2nccc(-c3cnn4ncccc34)n2)cc1	0.804 µM	> 9.35 µM	0.326 µM	1.13 µM	0.6 µM	3.65 µM	0.516 µM	9.07 µM	1.04 µM	4.01 µM	0.93 µM	2.89 µM	0.218 µM	0.749 µM	0.0653 µM	–	0.688 µM	2.48 µM	0.189 µM	> 10.3 µM
COC(=O)C1=C(OC(=O)c2ccc(Cl)cc2)C(C(=O)OC)[C@@]2(O)[C@@H](C(=O)OC)C(c3ccccc3Cl)C[C@@H]1[C@@H]2C(=O)OC (stereo partly specified)	4.03 µM	24 µM	2.21 µM	4.81 µM	3.16 µM	> 100 µM	4.54 µM	> 100 µM	4.85 µM	31.7 µM	19.8 µM	91.9 µM	5.19 µM	26.5 µM	5.47 µM	> 100 µM	4.07 µM	90.1 µM	3.49 µM	> 100 µM
C/C=C/[C@@H]1OC(=O)C2=C[C@@H](O)[C@@H](/C=C/C)O[C@H]21	3.05 µM	> 35.7 µM	13.9 µM	28.9 µM	15.8 µM	34 µM	0.989 µM	3.13 µM	1.73 µM	5.56 µM	20.5 µM	36.6 µM	9.03 µM	23.8 µM	14.4 µM	> 100 µM	3.23 µM	8.12 µM	2.34 µM	8.01 µM
COCCNc1cc(NC(=O)N2CCCc3cc(CN4CCN(C)CC4=O)c(C=O)nc32)ncc1C#N	> 50 µM	> 50 µM	> 50 µM	> 50 µM	> 50 µM	> 50 µM	> 50 µM	> 50 µM	> 50 µM	> 50 µM	> 50 µM	> 50 µM	> 50 µM	> 50 µM	40.4 µM	> 50 µM	> 50 µM	> 50 µM	23 µM	> 50 µM
COc1ccc(/C=C2\CCC(CN(C)C)C2=O)cc1OC (stereo unspecified)	–	24.6 µM	–	12.7 µM	–	37.4 µM	–	4.44 µM	–	11.7 µM	–	33.7 µM	–	23.9 µM	–	8.51 µM	–	16.1 µM	–	15.9 µM
COC(=O)C(F)C(Br)C(=O)OC (stereo unspecified)	–	3.52 µM	–	30.4 µM	–	39.1 µM	–	4.56 µM	–	16.5 µM	–	34.6 µM	–	34 µM	–	15.6 µM	–	13.4 µM	–	3.39 µM
O=C(OCCBr)c1ccc(Cl)c([N+](=O)[O-])c1	2.72 µM	7.85 µM	14.5 µM	28.5 µM	17.7 µM	35.4 µM	14.6 µM	30.2 µM	19.1 µM	43.4 µM	17.2 µM	31 µM	14.9 µM	28.5 µM	2.51 µM	7.5 µM	16.4 µM	36.6 µM	18.8 µM	34.4 µM
O=C(CN1CCN(c2ccccc2)CC1)N1CCN(c2nnc(-c3ccc(Cl)cc3)c(-c3ccc(Cl)cc3)n2)CC1	2.04 µM	> 100 µM	15.9 µM	> 100 µM	9.86 µM	> 100 µM	16.1 µM	> 100 µM	9.35 µM	> 100 µM	> 100 µM	> 100 µM	6.03 µM	29.6 µM	3.08 µM	19.6 µM	9.99 µM	> 100 µM	5.59 µM	> 100 µM

From PubChem BioAssay (NCI)
